Source: US11866430B2, “Naphthyridinone compounds useful as T cell activators” (priority 2018, dated 2024)
pIC50: −log10 of the molar value. Like-named read-outs stand apart in the source and are kept apart here.

Assays:
[1] = biological target: human DGKα (Homo sapiens (Human), UniProt P23743); assay: biochemical; conditions: detergent/lipid micelle substrate; read-out: DGKα IC50
Outline: (§1)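 Full-length human DGKζ (and DGKα), C-terminal His-tagged, Sf9-expressed, with phosphatidylserine/DAG micelles in 50 mM octyl glucoside; buffer 50 mM MOPS pH 7.5, 100 mM NaCl, 10 mM MgCl2, 1 μM CaCl2, 1 mM DTT.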

[2] = biological target: human DGKζ (Homo sapiens (Human), UniProt Q13574); assay: DGKζ assay (detergent/lipid micelle substrate); format: biochemical; conditions: detergent/lipid micelle substrate; read-out: DGKζ IC50
human DGKζ, sequence (Q13574 other isoform, or with tags, fused parts or gaps): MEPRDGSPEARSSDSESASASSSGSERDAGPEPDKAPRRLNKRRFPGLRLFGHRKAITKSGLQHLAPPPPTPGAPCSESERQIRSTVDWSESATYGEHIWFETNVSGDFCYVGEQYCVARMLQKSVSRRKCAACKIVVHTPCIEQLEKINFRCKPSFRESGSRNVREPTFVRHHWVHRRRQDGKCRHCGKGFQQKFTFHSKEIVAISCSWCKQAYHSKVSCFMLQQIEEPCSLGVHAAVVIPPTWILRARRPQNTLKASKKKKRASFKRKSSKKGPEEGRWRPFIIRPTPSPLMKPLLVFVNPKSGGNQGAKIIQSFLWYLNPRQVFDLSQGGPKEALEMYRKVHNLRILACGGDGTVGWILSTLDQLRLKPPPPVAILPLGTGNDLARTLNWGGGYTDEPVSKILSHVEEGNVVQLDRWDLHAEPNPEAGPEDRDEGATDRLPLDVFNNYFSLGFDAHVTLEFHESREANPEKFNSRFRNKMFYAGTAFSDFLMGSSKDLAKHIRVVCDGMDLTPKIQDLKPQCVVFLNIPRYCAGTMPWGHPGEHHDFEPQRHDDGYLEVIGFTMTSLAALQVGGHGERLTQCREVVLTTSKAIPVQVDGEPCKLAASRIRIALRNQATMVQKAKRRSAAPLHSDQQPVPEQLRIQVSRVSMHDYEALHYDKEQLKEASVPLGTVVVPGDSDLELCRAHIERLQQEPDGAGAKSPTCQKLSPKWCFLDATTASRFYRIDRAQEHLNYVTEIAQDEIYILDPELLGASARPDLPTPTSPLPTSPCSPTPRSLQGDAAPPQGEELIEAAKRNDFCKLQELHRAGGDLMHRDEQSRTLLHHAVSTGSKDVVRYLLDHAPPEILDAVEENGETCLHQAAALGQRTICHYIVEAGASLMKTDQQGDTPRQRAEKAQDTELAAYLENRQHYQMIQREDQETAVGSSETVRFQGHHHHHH
Outline: as §1

[3] = tested on: pre-activated CD4 T cells and Raji cells; assay: Raji CD4 T Cell IL2 Assay; format: cell-based

human DGKα, sequence (P23743 other isoform, or with tags, fused parts or gaps): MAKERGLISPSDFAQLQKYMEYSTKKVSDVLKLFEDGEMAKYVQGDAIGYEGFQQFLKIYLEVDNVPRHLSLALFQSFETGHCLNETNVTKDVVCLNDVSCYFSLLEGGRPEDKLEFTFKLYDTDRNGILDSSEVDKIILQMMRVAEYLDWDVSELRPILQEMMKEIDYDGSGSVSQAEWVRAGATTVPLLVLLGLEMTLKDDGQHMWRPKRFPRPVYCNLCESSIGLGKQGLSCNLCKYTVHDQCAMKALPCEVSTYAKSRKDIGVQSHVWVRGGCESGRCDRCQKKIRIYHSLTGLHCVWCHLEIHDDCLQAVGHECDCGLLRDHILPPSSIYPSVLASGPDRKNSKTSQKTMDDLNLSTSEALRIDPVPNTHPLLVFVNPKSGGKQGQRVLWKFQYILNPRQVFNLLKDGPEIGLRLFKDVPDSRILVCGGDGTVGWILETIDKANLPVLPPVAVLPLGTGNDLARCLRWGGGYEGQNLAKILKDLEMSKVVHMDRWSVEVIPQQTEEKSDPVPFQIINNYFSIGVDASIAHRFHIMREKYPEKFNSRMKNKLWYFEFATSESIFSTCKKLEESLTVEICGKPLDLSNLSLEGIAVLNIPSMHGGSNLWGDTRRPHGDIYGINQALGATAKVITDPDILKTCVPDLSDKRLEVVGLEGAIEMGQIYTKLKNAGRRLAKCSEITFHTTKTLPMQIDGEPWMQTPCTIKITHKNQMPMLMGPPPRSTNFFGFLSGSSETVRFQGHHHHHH

COc1cccc(C)c1C(c1ccc(F)cc1)N1CCN(c2c([N+](=O)[O-])c(=O)n(C)c3ccc(Br)nc23)CC1 (single isomer, unassigned) [Example 61, 6-bromo-4-(4-((4-fluorophenyl)(2-methoxy-6-methylphenyl)methyl)piperazin-1-yl)-1-methyl-3-nitro-1,5-naphthyridin-2(1H)-one]
pIC50 [1]: 5.36 | pIC50 [2]: 5.66 | pIC50 [3]: 7.25

COc1ccccc1CN1CCN(c2c(C#N)c(=O)n(C)c3ccc(Br)nc23)CC1 [Example 297, 6-bromo-4-{4-[4(2-methoxyphenyl)methyl]piperazin-1-yl}-1-methyl-2-oxo-1,2-dihydro-1,5-naphthyridine-3-carbonitrile]
pIC50 [1]: 6.05 | pIC50 [2]: < 3.62 | pIC50 ([3]; Homo sapiens, Raji): 6.80

COc1cccc(CN2CCN(c3c(C#N)c(=O)n(C)c4ccc(Br)nc34)CC2)c1O [Example 368, 6-bromo-4-{4-[(2-hydroxy-3-methoxyphenyl)methyl]piperazin-1-yl}-1-methyl-2-oxo-1,2-dihydro-1,5-naphthyridine-3-carbonitrile]
pIC50 [1]: 6.40 | pIC50 [2]: < 3.62 | pIC50 ([3]; Homo sapiens, Raji): < 4.00

Cn1c(=O)c(C#N)c(N2CCN(Cc3cc(O)cc(Cl)c3)CC2)c2nc(Cl)ccc21 [Example 345, 6-chloro-4-{4-[(3-chloro-5-hydroxyphenyl)methyl]piperazin-1-yl}-1-methyl-2-oxo-1,2-dihydro-1,5-naphthyridine-3-carbonitrile]
pIC50 [1]: 5.34 | pIC50 [2]: < 3.62 | pIC50 ([3]; Homo sapiens, Raji): 6.00

Cn1c(=O)c(C#N)c(N2CCN(Cc3c(O)cccc3F)CC2)c2nc(Br)ccc21 [Example 294, 6-bromo-4-{4-[(2-fluoro-6-hydroxyphenyl)methyl]piperazin-1-yl}-1-methyl-2-oxo-1,2-dihydro-1,5-naphthyridine-3-carbonitrile]
pIC50 [1]: 6.96 | pIC50 [2]: < 3.62 | pIC50 ([3]; Homo sapiens, Raji): 6.85

N#CCn1c(=O)c(C#N)c(N2CCN(C(c3ccc(F)cc3)c3ccc(F)cc3)CC2)c2nc(Br)ccc21 [Example 153, 4-(4-(bis(4-fluorophenyl)methyl)piperazin-1-yl)-6-bromo-1-(cyanomethyl)-2-oxo-1,2-dihydro-1,5-naphthyridine-3-carbonitrile]
pIC50 [1]: 3.74 | pIC50 [2]: 4.12 | pIC50 ([3]; Homo sapiens, Raji): 6.15

C#CCOc1ccccc1C(c1ccc(F)cc1)N1CCN(c2c(C#N)c(=O)n(C)c3ccc(Cl)nc23)CC1 (stereo not drawn) [Example 39, 6-chloro-4-{4-[(4-fluorophenyl)[2-(prop-2-yn-1-yloxy)phenyl]methyl]piperazin-1-lv}-1-methyl-2-oxo-1,2-dihydro-1,5-naphthyridine-3-carbonitrile]
pIC50 [1]: 4.30 | pIC50 [2]: < 3.62 | pIC50 ([3]; Homo sapiens, Raji): 6.19

Cn1c(=O)c(C#N)c(N2CCN(Cc3ccc(F)c(F)c3)CC2)c2nc(Cl)ccc21 [Example 319, 6-chloro-4-{4-[(3,4-difluorophenyl)methyl]piperazin-1-yl}-1-methyl-2-oxo-1,2-dihydro-1,5-naphthyridine-3-carbonitrile]
pIC50 [1]: 6.26 | pIC50 [2]: 3.66 | pIC50 ([3]; Homo sapiens, Raji): 6.52

COCCn1c(=O)c([N+](=O)[O-])c(N2CCN(C(c3ccccc3)c3ccccc3)CC2)c2ncccc21 [Example 244, 4-[4-(diphenylmethyl)piperazin-1-yl]-1-(2-methoxyethyl)-3-nitro-1,2-dihydro-1,5-naphthyridin-2-one]
pIC50 [1]: 4.49 | pIC50 [2]: < 4.09 | pIC50 ([3]; Homo sapiens, Raji): 6.16

Cn1c(=O)c(C#N)c(N2CCN(Cc3c(O)cccc3Br)CC2)c2nc(Br)ccc21 [Example 271, 6-bromo-4-{4-[(2-bromo-6-hydroxyphenyl)methyl]piperazin-1-yl}-1-methyl-2-oxo-1,2-dihydro-1,5-naphthyridine-3-carbonitrile]
pIC50 [1]: 5.96 | pIC50 [2]: 3.96 | pIC50 ([3]; Homo sapiens, Raji): 7.21

Cc1ccccc1C(c1ccccc1O)N1CCN(c2c([N+](=O)[O-])c(=O)n(C)c3ccc(Br)nc23)CC1 (stereo not drawn) [Example 73, 6-bromo-4-(4-((2-hydroxyphenyl)(o-tolyl)methyl)piperazin-1-yl)-1-methyl-3-nitro-1,5-naphthyridin-2(1H)-one]
pIC50 [1]: 6.05 | pIC50 [2]: 5.68 | pIC50 ([3]; Homo sapiens, Raji): 7.59

Cn1c(=O)c(C#N)c(N2CCN(C3(c4ccc(F)cc4)CC3)CC2)c2nc(Cl)ccc21 [Example 421, 6-chloro-4-{4-[1-(4-fluorophenyl)cyclopropyl]piperazin-1-yl}-1-methyl-2-oxo-1,2-dihydro-1,5-naphthyridine-3-carbonitrile]
pIC50 [1]: 4.16 | pIC50 [2]: < 3.62 | pIC50 ([3]; Homo sapiens, Raji): 5.55

COc1cccc(CN2CCN(c3c(C#N)c(=O)n(C)c4ccc(Cl)nc34)CC2)c1O [Example 371, 6-chloro-4-{4-[(2-hydroxy-3-methoxyphenyl)methyl]piperazin-1-yl}-1-methyl-2-oxo-1,2-dihydro-1,5-naphthyridine-3-carbonitrile]
pIC50 [1]: 6.64 | pIC50 [2]: 3.77 | pIC50 ([3]; Homo sapiens, Raji): < 4.00

COc1cccc(C)c1C(c1ccc(F)cc1)N1CCN(c2c([N+](=O)[O-])c(=O)n(C)c3ccc(Br)nc23)CC1 (single isomer, unassigned) [Example 60, 6-bromo-4-(4-((4-fluorophenyl)(2-methoxy-6-methylphenyl)methyl)piperazin-1-yl)-1-methyl-3-nitro-1,5-naphthyridin-2(1H)-one]
pIC50 [1]: 4.49 | pIC50 [2]: < 3.62 | pIC50 [3]: 5.80

Cn1c(=O)c(C#N)c(N2CCN(Cc3cccc(F)c3O)CC2)c2nc(Cl)ccc21 [Example 306, 6-chloro-4-{4-[(3-fluoro-2-hydroxyphenyl)methyl]piperazin-1-yl}-1-methyl-2-oxo-1,2-dihydro-1,5-naphthyridine-3-carbonitrile]
pIC50 [1]: 6.70 | pIC50 [2]: < 3.62 | pIC50 ([3]; Homo sapiens, Raji): 6.68

CCN(C)c1cccc(CN2CCN(c3c(C#N)c(=O)n(C)c4ccc(Cl)nc34)CC2)c1 [Example 199, 6-chloro-4-(4-(3-(ethyl(methyl)amino)benzyl)piperazin-1-yl)-1-methyl-2-oxo-1,2-dihydro-1,5-naphthyridine-3-carbonitrile]
pIC50 [1]: 6.32 | pIC50 [2]: < 3.62 | pIC50 ([3]; Homo sapiens, Raji): 6.42

Cn1c(=O)c(C#N)c(N2CCN(Cc3ccccc3F)CC2)c2nc(Cl)ccc21 [Example 339, 6-chloro-4-{4-[(2-fluorophenyl)methyl]piperazin-1-yl}-1-methyl-2-oxo-1,2-dihydro-1,5-naphthyridine-3-carbonitrile]
pIC50 [1]: 6.24 | pIC50 [2]: < 3.62 | pIC50 ([3]; Homo sapiens, Raji): 6.19

CCc1ccc2c(n1)c(N1CCN(C(c3ccccc3)c3ccccc3)CC1)c(C#N)c(=O)n2C [Example 202, 4-(4-benzhydrylpiperazin-1-yl)-6-ethyl-1-methy-2-oxo-1,2-dihydro-1,5-naphthyridine-3-carbonitrile]
pIC50 [1]: 4.51 | pIC50 [2]: 4.92 | pIC50 ([3]; Homo sapiens, Raji): 6.40

Cn1c(=O)c(C#N)c(N2CCN(CC(O)c3ccc(F)cc3)CC2)c2nc(Br)ccc21 (single isomer, unassigned) [Example 29, 6-bromo-4-{4-[2-(4-fluorophenyl)-2-hydroxyethyl]piperazin-1-yl}-1-methyl-2-oxo-1,2-dihydro-1,5-naphthyridine-3-carbonitrile]
pIC50 [1]: 6.24 | pIC50 [2]: < 3.62 | pIC50 [3]: 5.64

Cn1c(=O)c(C#N)c(N2CCN(Cc3cc(F)cc(F)c3O)CC2)c2nc(Br)ccc21 [Example 320, 6-bromo-4-{4-[(3,5-difluoro-2-hydroxyphenyl)methyl]piperazin-1-yl}-1-methyl-2-oxo-1,2-dihydro-1,5-naphthyridine-3-carbonitrile]
pIC50 [1]: 6.05 | pIC50 [2]: < 3.62 | pIC50 ([3]; Homo sapiens, Raji): 6.52

Cn1c(=O)c(C#N)c(N2CCN(C(CO)c3ccc(F)cc3)CC2)c2nc(Br)ccc21 (stereo not drawn) [Example 31, 6-bromo-4-{4-[1-(4-fluorophenyl)-2-hydroxyethyl]piperazin-1-yl}-1-methyl-2-oxo-1,2-dihydro-1,5-naphthyridine-3-carbonitrile]
pIC50 [1]: 5.92 | pIC50 [2]: < 3.62 | pIC50 ([3]; Homo sapiens, Raji): 5.74

COCCCn1c(=O)c([N+](=O)[O-])c(N2CCN(C(c3ccccc3)c3ccccc3)CC2)c2ncccc21 [Example 190, 4-(4-benzhydrylpiperazin-1-yl)-1-(3-methoxypropyl)-3-nitro-1,5-naphthyridin-2(1H)-one]
pIC50 [1]: 4.24 | pIC50 [2]: < 3.62 | pIC50 ([3]; Homo sapiens, Raji): 5.38

Cn1c(=O)c(C#N)c(N2CCN(Cc3cc(Cl)ccc3O)CC2)c2nc(Br)ccc21 [Example 367, 6-bromo-4-{4-[(5-chloro-2-hydroxyphenyl)methyl]piperazin-1-yl}-1-methyl-2-oxo-1,2-dihydro-1,5-naphthyridine-3-carbonitrile]
pIC50 [1]: 6.66 | pIC50 [2]: < 3.62 | pIC50 ([3]; Homo sapiens, Raji): < 4.00

Cn1c(=O)c(C#N)c(N2CCN(Cc3ccccc3F)CC2)c2nc(Br)ccc21 [Example 344, 6-bromo-4-{4-[(2-fluorophenyl)methyl]piperazin-1-yl}-1-methyl-2-oxo-1,2-dihydro-1,5-naphthyridine-3-carbonitrile]
pIC50 [1]: 6.40 | pIC50 [2]: < 3.62 | pIC50 ([3]; Homo sapiens, Raji): 6.09

C#CCn1c(=O)c(C#N)c(N2CCN(C(c3ccc(F)cc3)c3ccccc3O)CC2)c2nc(Br)ccc21 (single isomer, unassigned) [Example 106, 6-bromo-4-(4-((4-fluorophenyl)(2-hydroxyphenyl)methyl)piperazin-1-yl)-2-oxo-1-(prop-2-yn-1-yl)-1,2-dihydro-1,5-naphthyridine-3-carbonitrile]
pIC50 [1]: 6.02 | pIC50 [2]: 5.70 | pIC50 ([3]; Homo sapiens, Raji): 8.62

Cn1c(=O)c(C#N)c(N2CCN(Cc3cc(F)cc(Cl)c3)CC2)c2nc(Cl)ccc21 [Example 324, 6-chloro-4-{4-[(3-chloro-5-fluorophenyl)methyl]piperazin-1-yl}-1-methyl-2-oxo-1,2-dihydro-1,5-naphthyridine-3-carbonitrile]
pIC50 [1]: 6.72 | pIC50 [2]: < 3.62 | pIC50 ([3]; Homo sapiens, Raji): 6.46
